Several values for one entry are separate records, joined by “and”; a condition that tells them apart may be missing. Equal entries are not always repeated. Where two headings read alike, the source gives them in different places.
Columns and labels:
[1] = tested on: isolated Dd2-Polδ-PfATP4^G358S P. falciparum trophozoites; assay: [Na+]cyt measurement (SBFI), Na+ dysregulation; format: cell-based, Plasmodium falciparum; design: Final [Na+]cyt reached: unit not given here
Procedure: (§1) The ratio of the fluorescence intensity recorded at 340 nm and 380 nm (with an emission wavelength of 515 nm) was converted to [Na^+]cyt using a calibration procedure that entailed suspending parasites in solutions of varying [Na^+] containing ionophores. Fluorescence measurements and calibrations were performed at 37 °C, either with individual 1 mL suspensions using a PerkinElmer LS 50B fluorescence spectrometer (for resting [Na^+]cyt measurements for which the data are shown in Supplementary Fig. 7) or in 96-well plates using a Tecan Infinite M1000 PRO plate reader with i-control (version 1.12) software (all other [Na^+]cyt measurements).

[2] = tested on: isolated Dd2-Polδ P. falciparum trophozoites; assay: [Na+]cyt measurement (SBFI), Na+ dysregulation; format: cell-based, Plasmodium falciparum; design: Final [Na+]cyt reached: unit not given here; details: for Final [Na+]cyt reached: Dd2-Polδ; for IC50: Plasmodium falciparum
Procedure: as §1

[3] = tested on: Dd2-B2-PfATP4^G358S parasites; assay: P. falciparum proliferation assay (72 h, flow cytometry, SYBR Green I/MitoTracker); format: cell-based; details: Plasmodium falciparum; Dd2-B2-PfATP4G358S; mean ± SEM
Procedure: (§2) Two types of parasite proliferation assays were employed in this study, with both yielding highly consistent results. For the NF54-based lines and Dd2-B2-PfATP4^G358S and its parent, assays were initiated with cultures containing predominantly ring-stage parasites with a parasitaemia of 0.3% and a haematocrit of 1%. All assays using NF54 were performed in culture media containing 10% O + human serum. The duration of the assays was 72 h and the concentration of DMSO was <0.5% (v/v). Serial dilutions of the test compounds were performed using a Tecan D300e digital dispenser, with parasite cultures added manually. Parasite survival was assessed by flow cytometry on an Intellicyt iQue3 (Essen Bioscience), with 1× SYBR Green I (Invitrogen) and 200 nM MitoTracker Deep Red FM (Invitrogen) used to stain the nucleus and the mitochondria in live parasites, respectively. The gating strategy used to quantify parasite survival, performed using FlowJo version 10 (FlowJo LLC.), is illustrated in Supplementary Fig. 9. IC50 and IC90 values were calculated by linear interpolation of the dose-response data.

Dd2-B2 parasites = assay: as above; format: cell-based; details: Plasmodium falciparum, DD2, read-out: IC50 value
Procedure: as §2

[4] = tested on: extracellular T. gondii tachyzoites expressing TgATP4^WT; assay: [Na+]cyt measurement (SBFI), Na+ dysregulation; format: cell-based, Toxoplasma gondii; design: Final [Na+]cyt reached: unit not given here
Procedure: as §1

[5] = tested on: extracellular T. gondii tachyzoites expressing TgATP4^G419S-HA; assay: [Na+]cyt measurement (SBFI), Na+ dysregulation; format: cell-based, Toxoplasma gondii; design: Final [Na+]cyt reached: unit not given here; details: TgATP4G419S-HA; for IC50: Toxoplasma gondii
Procedure: as §1

[6] = [cipargamin] 62.5 nM, single experiments
[7] = [cipargamin] 250 nM, single experiments

C[C@H]1Cc2c([nH]c3cc(Cl)c(F)cc23)[C@@]2(N1)C(=O)Nc1ccc(Cl)cc12 [Cipargamin]
Final [Na+]cyt reached ([1]; Dd2-Polδ-PfATP4G358S, [cipargamin] 4.9 nM, MEAN): 28.1
Final [Na+]cyt reached ([1]; Dd2-Polδ-PfATP4G358S, [cipargamin] 4.9 nM, single experiments): 19.9 and 30.8 and 33.6
Final [Na+]cyt reached ([1]; Dd2-Polδ-PfATP4G358S, [cipargamin] 9.8 nM, MEAN): 23.6
Final [Na+]cyt reached ([1]; Dd2-Polδ-PfATP4G358S, [cipargamin] 19.5 nM, MEAN): 24.9
Final [Na+]cyt reached ([1]; Dd2-Polδ-PfATP4G358S, [cipargamin] 39.1 nM, MEAN): 26.7
Final [Na+]cyt reached ([1]; Dd2-Polδ-PfATP4G358S, [cipargamin] 78.1 nM, MEAN): 27.0
Final [Na+]cyt reached ([1]; Dd2-Polδ-PfATP4G358S, [cipargamin] 156.3 nM, MEAN): 28.5
Final [Na+]cyt reached ([1]; Dd2-Polδ-PfATP4G358S, [cipargamin] 312.5 nM, MEAN): 31.8
Final [Na+]cyt reached ([1]; Dd2-Polδ-PfATP4G358S, [cipargamin] 625 nM, MEAN): 35.9
Final [Na+]cyt reached ([1]; Dd2-Polδ-PfATP4G358S, [cipargamin] 2500 nM, MEAN): 55.3
Final [Na+]cyt reached ([1]; Dd2-Polδ-PfATP4G358S, [cipargamin] 5000 nM, MEAN): 78.8
Final [Na+]cyt reached ([1]; Dd2-Polδ-PfATP4G358S, [cipargamin] 10000 nM, MEAN): 93.3
IC50 ([1]; Dd2-Polδ-PfATP4G358S, single experiments, source data of Table 1 (nM there), read-out: IC50 for Na+ dysregulation): > 2500 nM and 3420 nM and 2100 nM and 3020 nM
IC50 ([1]; Plasmodium falciparum, DD2, 1.5 h, pH 7.1, Dd2-Polδ-PfATP4G358S, ~90 min exposure, 37 °C, pH 7.1, read-out: IC50 for Na+ dysregulation): > 2000 nM
IC50 ([1]; Plasmodium falciparum, DD2, Dd2-Polδ-PfATP4G358S, MEAN, source data of Table 1 (nM there), read-out: IC50 for Na+ dysregulation, MEAN): > 2000 nM
IC50 ([1]; Plasmodium falciparum, DD2, Dd2-Polδ-PfATP4G358S, single experiments, source data of Table 1 (nM there), read-out: IC50 for Na+ dysregulation): 3540 nM
Final [Na+]cyt reached ([2]; [cipargamin] 0.06 nM, MEAN): 13.0
Final [Na+]cyt reached ([2]; [cipargamin] 0.12 nM, MEAN): 12.3
Final [Na+]cyt reached ([2]; [cipargamin] 0.244 nM, MEAN): 15.5
Final [Na+]cyt reached ([2]; [cipargamin] 0.5 nM, MEAN): 26.2
Final [Na+]cyt reached ([2]; [cipargamin] 1.0 nM, MEAN): 27.3
Final [Na+]cyt reached ([2]; [cipargamin] 2.0 nM, MEAN): 45.7
Final [Na+]cyt reached ([2]; [cipargamin] 3.9 nM, MEAN): 57.4
Final [Na+]cyt reached ([2]; [cipargamin] 7.8 nM, MEAN): 88.5
Final [Na+]cyt reached ([2]; [cipargamin] 15.6 nM, MEAN): 98.7
Final [Na+]cyt reached ([2]; [cipargamin] 31.3 nM, MEAN): 113.1
Final [Na+]cyt reached ([2]; [cipargamin] 62.5 nM, MEAN): 115.1
Final [Na+]cyt reached [2, 6]: 78.0 and 146.2 and 96.4 and 129.7 and 125.5
Final [Na+]cyt reached ([2]; [cipargamin] 250 nM, MEAN): 115.9
Final [Na+]cyt reached [2, 7]: 94.4 and 105.7 and 130.4 and 132.9
IC50 ([2]; DD2, 1.5 h, pH 7.1, Dd2-Polδ, ~90 min exposure, 37 °C, pH 7.1, mean ± SEM, read-out: IC50 for Na+ dysregulation): 8.4 ± 3 nM
IC50 ([2]; DD2, Dd2-Polδ, MEAN, source data of Table 1 (nM there), read-out: IC50 for Na+ dysregulation, MEAN): 8.38 nM
IC50 [3]: 1640 ± 80 nM
IC50 (Dd2-B2 parasites): 2.17 ± 0.24 nM
IC50 ([4]; Toxoplasma gondii, 1.5 h, pH 7.1, WT T. gondii (TgATP4WT), ~90 min exposure, 37 °C, pH 7.1, mean ± SEM, read-out: IC50 for Na+ dysregulation): 110 ± 3 nM
IC50 ([4]; Toxoplasma gondii, WT T. gondii, MEAN, source data of Table 1 (nM there), read-out: IC50 for Na+ dysregulation, MEAN): 110 nM
IC50 ([4]; Toxoplasma gondii, WT T. gondii, single experiments, source data of Table 1 (nM there), read-out: IC50 for Na+ dysregulation): 103 nM
Final [Na+]cyt reached ([4]; WT T. gondii, [cipargamin] 0.5 nM, MEAN): 15.8
Final [Na+]cyt reached ([4]; WT T. gondii, [cipargamin] 0.5 nM, single experiments): 14.2 and 16.3 and 16.8
Final [Na+]cyt reached ([4]; WT T. gondii, [cipargamin] 1.0 nM, MEAN): 16.2
Final [Na+]cyt reached ([4]; WT T. gondii, [cipargamin] 1.0 nM, single experiments): 15.5 and 17.0 and 16.2
Final [Na+]cyt reached ([4]; WT T. gondii, [cipargamin] 2.0 nM, MEAN): 14.1
Final [Na+]cyt reached ([4]; WT T. gondii, [cipargamin] 3.9 nM, MEAN): 20.7
Final [Na+]cyt reached ([4]; WT T. gondii, [cipargamin] 3.9 nM, single experiments): 19.6 and 20.6 and 21.8
Final [Na+]cyt reached ([4]; WT T. gondii, [cipargamin] 7.8 nM, MEAN): 23.3
Final [Na+]cyt reached ([4]; WT T. gondii, [cipargamin] 7.8 nM, single experiments): 25.2 and 22.3 and 22.5
Final [Na+]cyt reached ([4]; WT T. gondii, [cipargamin] 15.6 nM, MEAN): 26.7
Final [Na+]cyt reached ([4]; WT T. gondii, [cipargamin] 15.6 nM, single experiments): 29.0 and 26.8 and 24.3
Final [Na+]cyt reached ([4]; WT T. gondii, [cipargamin] 31.3 nM, MEAN): 34.0
Final [Na+]cyt reached ([4]; WT T. gondii, [cipargamin] 31.3 nM, single experiments): 35.7 and 36.9 and 29.4
Final [Na+]cyt reached ([4]; WT T. gondii, [cipargamin] 62.5 nM, MEAN): 44.2
Final [Na+]cyt reached ([4]; WT T. gondii, [cipargamin] 62.5 nM, single experiments): 43.2 and 51.7 and 37.6
Final [Na+]cyt reached ([4]; WT T. gondii, [cipargamin] 250 nM, MEAN): 75.6
Final [Na+]cyt reached ([4]; WT T. gondii, [cipargamin] 250 nM, single experiments): 72.9 and 86.9 and 66.9
Final [Na+]cyt reached ([4]; WT T. gondii, [cipargamin] 500 nM, MEAN): 86.6
Final [Na+]cyt reached ([4]; WT T. gondii, [cipargamin] 500 nM, single experiments): 82.0 and 102.0 and 75.9
Final [Na+]cyt reached ([4]; WT T. gondii, [cipargamin] 1000 nM, MEAN): 91.2
Final [Na+]cyt reached ([4]; WT T. gondii, [cipargamin] 1000 nM, single experiments): 85.2 and 107.2 and 81.2
IC50 ([4]; WT T. gondii, single experiments, source data of Table 1 (nM there), read-out: IC50 for Na+ dysregulation): 113 nM
Final [Na+]cyt reached ([5]; [cipargamin] 7.8 nM, MEAN): 14.1
Final [Na+]cyt reached ([5]; [cipargamin] 7.8 nM, single experiments): 13.4 and 14.3 and 14.5
Final [Na+]cyt reached ([5]; [cipargamin] 15.6 nM, MEAN): 15.4
Final [Na+]cyt reached ([5]; [cipargamin] 15.6 nM, single experiments): 14.1 and 15.1 and 17.0
Final [Na+]cyt reached ([5]; [cipargamin] 31.3 nM, MEAN): 15.4
Final [Na+]cyt reached ([5]; [cipargamin] 31.3 nM, single experiments): 13.9 and 14.5 and 17.9
Final [Na+]cyt reached ([5]; [cipargamin] 62.5 nM, MEAN): 14.3
Final [Na+]cyt reached [5, 6]: 13.2 and 14.1 and 15.7
Final [Na+]cyt reached ([5]; [cipargamin] 250 nM, MEAN): 13.7
Final [Na+]cyt reached [5, 7]: 13.6 and 14.5 and 12.9
Final [Na+]cyt reached ([5]; [cipargamin] 500 nM, MEAN): 14.5
Final [Na+]cyt reached ([5]; [cipargamin] 500 nM, single experiments): 12.6 and 13.5 and 17.5
Final [Na+]cyt reached ([5]; [cipargamin] 1000 nM, MEAN): 16.4
Final [Na+]cyt reached ([5]; [cipargamin] 1000 nM, single experiments): 14.3 and 16.7 and 18.1
Final [Na+]cyt reached ([5]; [cipargamin] 2000 nM, MEAN): 17.1
Final [Na+]cyt reached ([5]; [cipargamin] 2000 nM, single experiments): 13.3 and 17.0 and 20.8
Final [Na+]cyt reached ([5]; [cipargamin] 4000 nM, MEAN): 24.3
Final [Na+]cyt reached ([5]; [cipargamin] 4000 nM, single experiments): 22.1 and 21.4 and 29.4
Final [Na+]cyt reached ([5]; [cipargamin] 8000 nM, MEAN): 34.2
Final [Na+]cyt reached ([5]; [cipargamin] 8000 nM, single experiments): 32.0 and 31.0 and 39.5
IC50 ([5]; 1.5 h, ~90 min exposure, 37 °C, pH 7.1, read-out: IC50 for Na+ dysregulation): > 8000 nM
IC50 ([5]; MEAN, source data of Table 1 (nM there), read-out: IC50 for Na+ dysregulation, MEAN): > 8000 nM
IC50 ([5]; single experiments, source data of Table 1 (nM there), read-out: IC50 for Na+ dysregulation): > 8000 nM

Reference: article PMC9525273 (Nature Communications, 2022)
